Reference: patent US12496288B2, “Vaginal tablet formulation” (Gedea Biotech AB, priority 2019, dated 2025)

Legend:
[1] = IPCS 1999; 21CFR184.1318; cited from earlier work
[2] = tested on: several strains of bacteria; conditions: WO 2017/174731, WO 2019/068862; cited from earlier work
[3] = tested on: different Candida species; conditions: WO 2017/174731, WO 2019/068862; cited from earlier work
[4] = oral doses between 3 g and 50 g; cited from earlier work
[5] = tested on: different Candida species; test: Biofilm of Candida species; type: cell-based; conditions: found by the present inventors
[6] = tested on: several strains of bacteria; test: Biofilm of bacteria; type: cell-based; conditions: found by the present inventors
Candida albicans = conditions: preclinical studies; WO 2017/174731; cited from earlier work

Question: With `O=C(O)[C@H](O)[C@@H](O)[C@H](O)[C@H](O)CO` [gluconic acid] as the compound, how does the “carcinogenicity, teratogenicity, or genotoxicity” value [1] read?
Answer: The value was “no evidence”.

Question: What about the presence of biofilm [2] of the same compound?
Answer: Its presence of biofilm is “reduces the presence of biofilm”.

Question: What about the “presence / formation of biofilm” value [3] of the same compound?
Answer: Its value is “reduces the presence of biofilm”.

Question: What does the source list for `O=C1O[C@H](CO)[C@@H](O)[C@H](O)[C@H]1O` [GDL, glucono-δ-lactone]?
Answer: signs of toxicity [4]: no signs of toxicity; formation of biofilm [5]: has an effect on the formation of biofilm; formation of biofilm [6]: has an effect on the formation of biofilm; Candida albicans present in the hyphal, i.e. the pathogenic form (Candida albicans): significant reduction; presence / formation of biofilm [3]: significantly reduced
